# Legend:
# [1] = human gut metagenome, 24 h, 2 µM
# [2] = (§1) The drug is tested on WLS-069 corresponding to human gut metagenome with ENA study accession number: PRJEB37062 and ENA sample accession number: ERS12561748 for biotransformation under anaerobic condition. The drug concentrations were measured over 9 timepoints collected between 0 and 24 hours of incubation by liquid-chromatography-coupled mass spectrometry (LC–MS); details: 2 µM
# [3] = human gut metagenome, 24 h, 2 µM; remark: listed apart in the source
# [4] = as §1, with “WLS-170” for “WLS-069”, “ERS12561762” for “ERS12561748”; details: 2 µM
# [5] = as §1, with “WLS-006” for “WLS-069”, “ERS12561741” for “ERS12561748”; details: 2 µM
# [6] = as §1, with “Z-004” for “WLS-069”, “to” for “to human gut”, “ERS12561804” for “ERS12561748”; details: 2 µM
# [7] = human gut metagenome, 24 h, 2 µM; remark: listed apart in the source
# [8] = human gut metagenome, 24 h, 2 µM; remark: listed apart in the source
# [9] = human gut metagenome, 24 h, 2 µM; remark: listed apart in the source
# [10] = human gut metagenome, 24 h, 2 µM; remark: listed apart in the source
# [11] = as §1, with “Z-010” for “WLS-069”, “to” for “to human gut”, “ERS12561810” for “ERS12561748”; details: 2 µM
# [12] = as §1, with “Z-013” for “WLS-069”, “rabbit” for “human”, “ERS12561813” for “ERS12561748”; details: 2 µM
# [13] = human gut metagenome, 24 h, 2 µM; remark: listed apart in the source
# [14] = human gut metagenome, 24 h, 2 µM; remark: listed apart in the source
# [15] = human gut metagenome, 24 h, 2 µM; remark: listed apart in the source
# [16] = human gut metagenome, 24 h, 2 µM; remark: listed apart in the source
# [17] = human gut metagenome, 24 h, 2 µM; remark: listed apart in the source
# [18] = as §1, with “WLS-220” for “WLS-069”, “ERS12561769” for “ERS12561748”; details: 2 µM
# [19] = as §1, with “WLS-010” for “WLS-069”, “ERS12561743” for “ERS12561748”; details: 2 µM
# [20] = human gut metagenome, 24 h, 2 µM; remark: listed apart in the source
# Further: call rule not given here.
SMILES,Bacterial Biotransformation [1],Bacterial Biotransformation [2],Bacterial Biotransformation [3],Bacterial Biotransformation [4],Bacterial Biotransformation [5],Bacterial Biotransformation [6],Bacterial Biotransformation [7],Bacterial Biotransformation [8],Bacterial Biotransformation [9],Bacterial Biotransformation [10],Bacterial Biotransformation [11],Bacterial Biotransformation [12],Bacterial Biotransformation [13],Bacterial Biotransformation [14],Bacterial Biotransformation [15],Bacterial Biotransformation [16],Bacterial Biotransformation [17],Bacterial Biotransformation [18],Bacterial Biotransformation [19],Bacterial Biotransformation [20]
Clc1ccc(Cn2c(CN3CCCC3)nc3ccccc32)cc1 [CLEMIZOLE],Compound NOT metabolized,Compound metabolized,Compound metabolized,Compound metabolized,Compound metabolized,Compound NOT metabolized,Compound NOT metabolized,Compound metabolized,Compound metabolized,Compound metabolized,Compound metabolized,Compound metabolized,Compound metabolized,Compound metabolized,Compound NOT metabolized,Compound metabolized,Compound metabolized,Compound NOT metabolized,Compound NOT metabolized,Compound metabolized
O=C1[C@H](CC[C@H](O)c2ccc(F)cc2)[C@@H](c2ccc(O)cc2)N1c1ccc(F)cc1 [EZETIMIBE],Compound metabolized,Compound metabolized,Compound metabolized,Compound metabolized,Compound metabolized,Compound NOT metabolized,Compound NOT metabolized,Compound NOT metabolized,Compound metabolized,Compound NOT metabolized,Compound NOT metabolized,Compound NOT metabolized,Compound NOT metabolized,Compound NOT metabolized,Compound NOT metabolized,Compound NOT metabolized,Compound metabolized,Compound metabolized,Compound metabolized,Compound NOT metabolized
CNC(=C[N+](=O)[O-])NCCSCc1csc(CN(C)C)n1 [NIZATIDINE],Compound NOT metabolized,Compound metabolized,Compound NOT metabolized,Compound metabolized,Compound metabolized,Compound NOT metabolized,Compound NOT metabolized,Compound NOT metabolized,Compound metabolized,Compound metabolized,Compound NOT metabolized,Compound NOT metabolized,Compound metabolized,Compound NOT metabolized,Compound NOT metabolized,Compound NOT metabolized,Compound metabolized,Compound NOT metabolized,Compound NOT metabolized,Compound metabolized
OC(Cn1cncn1)(Cn1cncn1)c1ccc(F)cc1F [FLUCONAZOLE],Compound metabolized,Compound metabolized,Compound metabolized,Compound metabolized,Compound metabolized,Compound NOT metabolized,Compound NOT metabolized,Compound metabolized,Compound NOT metabolized,Compound metabolized,Compound NOT metabolized,Compound NOT metabolized,Compound metabolized,Compound metabolized,Compound NOT metabolized,Compound NOT metabolized,Compound NOT metabolized,Compound NOT metabolized,Compound NOT metabolized,Compound metabolized

# Reference: ChEMBL document CHEMBL5724914, “Linking interpersonal differences in gut microbiota composition and drug biotransformation activity” (2024)
